Test results as given in article PMC11946679 (Toxics, 2025).
Marks after values point to notes of the source that are not given here.

Columns and labels:
[1] = test system: human peripheral blood lymphocytes; format: cell-based; conditions: alone, 3 h, IRI 9.0 mg/L, bleomycin 15 mg/L; for Total No. of Cells in Apoptosis / Total No. of Nonviable Cells: scored along with 4000 binucleated cells
Text: While screening microscope preparations to determine trends in the levels of the main CBMN assay descriptors, nonviable cells were also simultaneously counted on the same slides. Their discrimination was based on the specific morphological features typical for apoptosis or necrosis. It is well known that the biological significance of these phenomena differs deeply, and that the determination of the predominant type of cell death represents a very important issue in each experimental setting.
For each experimental group, we also calculated the ratio between the recorded number of nonviable cells and the cells in apoptosis (Table 5). According to reference, a ratio ≤ 1 means a prevalence of apoptotic events that induce cell death, while a ratio > 1 indicates the acute toxicity of the tested substance that promotes necrosis.

[2] = test system: human peripheral blood lymphocytes; test: CBMN cytome assay: lymphocyte proliferation (M1-M4, CBPI, RI); format: cell-based; conditions: alone, 3 h; IRI 9.0 mg/L, bleomycin 15 mg/L
Protocol: On the same slides, parameters of cell proliferation and cytotoxicity were also evaluated, in line with the OECD protocol.

[3] = test system: human peripheral blood lymphocytes; test: CBMN cytome assay: micronuclei, nuclear buds, nucleoplasmic bridges; conditions: alone, 3 h; IRI 9.0 mg/L, bleomycin 15 mg/L
Protocol: The CBMN assay was performed in line with standard protocols [8, 23].
To collect the blood sample, lithium heparin-coated tubes were used (BD vacutainer® with LH 170 I.U., Becton Dickinson: BD-Plymouth PL6 78P, UK).
There were 15 experimental groups altogether. The same experimental design was applied in two independent trials, each of which had two replicate cultures per experimental group; therefore, four replicate cultures for every single experimental group were established.
To induce cell division prior to exposure to the test chemicals, lymphocytes were stimulated with the mitogen phytohemagglutinin (PHA). Cultures were kept in a humidified atmosphere of 5% CO2 at 37 °C.
They started 41 h after PHA stimulation and lasted for 3 h at 37 °C.
Upon completion of exposure, lymphocyte cultures were centrifuged at 100× g. […] This procedure was timed for the 44th hour of lymphocyte cultivation, which represents a critical point for adding of cytoB to hinder cytokinesis and obtain binucleated cells. All treated and control cultures were further maintained at 37 °C until the end of the 72nd hour of cultivation, according to the above-mentioned standard protocols.
The first step in the preparation of microscopic slides was harvesting of cells by centrifugation (100× g), followed by treatment with 0.075 mol/L potassium chloride and succeeded by centrifugation. The sediments of cells were repeatedly fixed with methanol/acetic acid (3:1 v/v) followed by centrifugation. The final lymphocyte suspension was pipetted onto clean microscope slides. For staining, 5% aqueous solution of Giemsa dye was used. Slides were screened using a light microscope at 1000× magnification. For morphological discrimination of micronuclei (MNi), nuclear buds (NBs), nucleoplasmic bridges (NPBs) and cells in apoptosis or necrosis, the criteria by Fenech et al. [25] and Fenech [23] were applied. To determine their frequencies, per experimental point, a total of 4 × 1000 binucleated (BN) cells were scored.
This value was first used to estimate the number of MNi required to reach a decrease and an increase considered significant at a 5% significance level.

CCc1c2c(nc3ccc(OC(=O)N4CCC(N5CCCCC5)CC4)cc13)-c1cc3c(c(=O)n1C2)COC(=O)[C@]3(O)CC [Irinotecan, reference compound]
Total No. of Cells in Apoptosis [1]: 42
Total No. of Nonviable Cells [1]: 76
% of Cells with 1 to 4 Nuclei M1 [2]: 43.1 ^↑ %
% of Cells with 1 to 4 Nuclei M2 [2]: 52.9 ^↓ %
% of Cells with 1 to 4 Nuclei M3 [2]: 2.0 ^↓ %
% of Cells with 1 to 4 Nuclei M4 [2]: 2.0 ^↓ %
CBPI [2]: 1.609

Bleomycin [reference compound]
Ratio (nonviable cells and cells in apoptosis) [1]: 0.6
Total No. of Cells in Apoptosis [1]: 59
Total No. of Nonviable Cells [1]: 100
Distribution of BNMN Cells with 1 MN [3]: 65 *
Distribution of BNMN Cells with 2 MN [3]: 11 iri, g10+iri
Distribution of BNMN Cells with 3 MN [3]: 2
Distribution of BNMN Cells with 4 MN [3]: 1
Distribution of BNNB Cells with 1 NB [3]: 49 *
Distribution of BNNB Cells with 2 NB [3]: 4 c,p1,p5,p10,g1, g5,g10, p1+iri, p5+iri, p10+iri, g5+iri, g10+iri
Distribution of BNNPB Cells with 1 NPB [3]: 7 c,p1,p5,p10,g1, g5,g10, p1+iri, p5+iri, p10+iri, g1+iri, g5+iri, g10+iri
Distribution of BNNPB Cells with 2 NPB [3]: 0
Micronuclei (MNi) Mean (BNMN)1000 ± SD [3]: 19.75 ± 3.77
Micronuclei (MNi) Mean (MNi)1000 ± SD [3]: 24.25 ± 6.24
Micronuclei (MNi) Total (BNMN)4000 [3]: 79 *
Micronuclei (MNi) Total (MNi)4000 [3]: 97 *
Nuclear Buds (NBs) Mean (BNNB)1000 ± SD [3]: 13.25 ± 0.96
Nuclear Buds (NBs) Mean (NBs)1000 ± SD [3]: 14.25 ± 0.50
Nuclear Buds (NBs) Total (BNNB)4000 [3]: 53 *
Nuclear Buds (NBs) Total (NBs)4000 [3]: 57 *
Nucleoplasmic Bridges (NPBs) Mean (BNNPB)1000 ± SD [3]: 1.75 ± 1.26 c,p1,p5,p10, g1,g5,g10, p1+iri, p5+iri, p10+iri, g1+iri, g5+iri, g10+iri
Nucleoplasmic Bridges (NPBs) Mean (NPBs)1000 ± SD [3]: 1.75 ± 1.26 c,p1,p5,p10, g1,g5,g10, p1+iri, p5+iri, p10+iri, g1+iri, g5+iri, g10+iri
Nucleoplasmic Bridges (NPBs) Total (BNNPB)4000 [3]: 7 c,p1,p5, p10,g1,g5,g10,p1+iri,p5+iri, p10+iri, g1+iri, g5+iri, g10+iri
Nucleoplasmic Bridges (NPBs) Total (NPBs)4000 [3]: 7 c,p1,p5,p10,g1,g5,g10,p1+iri, p5+iri, p10+iri, g1+iri, g5+iri, g10+iri
% of Cells with 1 to 4 Nuclei M1 [2]: 45.5 ^↑ %
% of Cells with 1 to 4 Nuclei M2 [2]: 46.1 ^↓ %
% of Cells with 1 to 4 Nuclei M3 [2]: 4.2%
% of Cells with 1 to 4 Nuclei M4 [2]: 4.2 ^↓ %
CBPI [2]: 1.629
Replication Index (%) [2]: 64.0%
